Source: patent US20080009418A1, “Selective Inhibitors” (Alchemia LTD., priority 2004, published 2008)

Assays:
[1] = target: T1, Human neuropeptide Y (NPY-Y1) (Homo sapiens, UniProt P25929); test: Radioligand binding, human neuropeptide Y NPY-Y1 membranes, FlashPlate, [125I]-PYY; details: compound at 10 μM, [125I]-PYY
T1 construct: purchased Perkin Elmer Biosignal
T1 sequence (P25929 1-384): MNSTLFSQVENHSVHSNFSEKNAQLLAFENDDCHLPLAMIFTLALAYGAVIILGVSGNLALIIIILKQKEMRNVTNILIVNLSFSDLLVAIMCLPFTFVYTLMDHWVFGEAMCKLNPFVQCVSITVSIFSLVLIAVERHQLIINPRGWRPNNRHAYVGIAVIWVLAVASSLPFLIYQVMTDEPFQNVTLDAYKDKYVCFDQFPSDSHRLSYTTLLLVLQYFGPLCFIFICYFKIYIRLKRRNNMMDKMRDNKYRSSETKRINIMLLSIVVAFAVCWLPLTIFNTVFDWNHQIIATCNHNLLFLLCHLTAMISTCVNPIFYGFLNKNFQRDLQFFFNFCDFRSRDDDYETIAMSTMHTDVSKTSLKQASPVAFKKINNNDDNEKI
Outline: (§1)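 Cloned human receptor membranes were coated onto FlashPlate wells and incubated with radioligand and compound (added from a 0.5 mM DMSO daughter plate) for 1 hour at room temperature in the dark. Scintillation counting gave percent inhibition, with DMSO defining total and reference ligand defining non-specific binding.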

Human Melanocortin (MC3) = target: T2, Human Melanocortin (MC3) (Homo sapiens, UniProt P41968); test: Radioligand binding, human melanocortin MC3 membranes, FlashPlate, [125I]-NDP-αMSH; details: compound at 10 μM, [125I]-NDP-αMSH
T2 construct: purchased Perkin Elmer Biosignal
Outline: as §1

Human δ-opioid (DOP) = target: T3, Human δ-opioid (DOP) (Homo sapiens, UniProt P41143); test: Radioligand binding, human δ-opioid (DOP) membranes, FlashPlate, [3H]-Bremazocine; details: compound at 10 μM, [3H]-Bremazocine
T3 construct: purchased Perkin Elmer Biosignal
Outline: as §1

Human neurokinin (NK1) = target: T4, Human neurokinin (NK1) (Homo sapiens, UniProt P25103); test: Radioligand binding, human neurokinin NK1 membranes, filtration, [125I]-Substance P; details: compound at 10 μM, [125I]-Substance P
T4 construct: purchased Perkin Elmer Biosignal
Outline: (§2)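 Percent inhibition of radioligand binding measured on recombinant human membranes: NK1 with [125I]-Substance P, KOP with [3H]-Diprenorphine. Incubation 1 h at room temperature, then harvest onto 0.3% PEI-soaked filters, cold Tris-HCl pH 7.4 washes and scintillation counting; non-specific binding from reference ligand wells.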

Human Melanocortin (MC4) = target: T5, Human Melanocortin (MC4) (Homo sapiens, UniProt P32245); test: Radioligand binding, human melanocortin MC4 membranes, FlashPlate, [125I]-NDP-αMSH; details: compound at 10 μM, [125I]-NDP-αMSH
T5 construct: purchased Perkin Elmer Biosignal
Outline: as §1

Human melanocortin (MC5) = target: T6, Human melanocortin (MC5) (Homo sapiens, UniProt P33032); test: Radioligand binding, human melanocortin MC5 membranes, FlashPlate, [125I]-NDP-αMSH; details: compound at 10 μM, [125I]-NDP-αMSH
T6 construct: purchased Perkin Elmer Biosignal
Outline: as §1

Human μ-opioid (MOP) = target: T7, Human μ-opioid (MOP) (Homo sapiens, UniProt P35372); test: Radioligand binding, human μ-opioid (MOP) membranes, FlashPlate, [3H]-Naloxone; details: compound at 10 μM, [3H]-Naloxone
T7 construct: purchased Perkin Elmer Biosignal
Outline: as §1

Human opioid (ORL1) = target: T8, Human opioid (ORL1) (Homo sapiens, UniProt P41146); test: Radioligand binding, human opioid ORL1 membranes, FlashPlate, [125I]-Nociceptin; details: compound at 10 μM, [125I]-Nociceptin
T8 construct: purchased Perkin Elmer Biosignal
Outline: as §1

[2] = target: T9, Human melanin-concentrating hormone (MCH1) (Homo sapiens, UniProt Q99705); test: Radioligand binding, human melanin-concentrating hormone MCH1 membranes, FlashPlate, [125I]-S36057; details: compound at 10 μM; for A6 radioligand binding, percentage inhibition: [125I]-S36057
T9 construct: purchased Perkin Elmer Biosignal
Outline: as §1

Mouse urotensin (mUR2) = target: T10, Mouse urotensin (mUR2) (Mus musculus, UniProt Q8VIH9); test: Radioligand binding, mouse urotensin mUR2 membranes, FlashPlate, [125I]-Urotensin II; details: compound at 10 μM, [125I]-Urotensin II
T10 construct: purchased Perkin Elmer Biosignal
T10 sequence (Q8VIH9 1-385): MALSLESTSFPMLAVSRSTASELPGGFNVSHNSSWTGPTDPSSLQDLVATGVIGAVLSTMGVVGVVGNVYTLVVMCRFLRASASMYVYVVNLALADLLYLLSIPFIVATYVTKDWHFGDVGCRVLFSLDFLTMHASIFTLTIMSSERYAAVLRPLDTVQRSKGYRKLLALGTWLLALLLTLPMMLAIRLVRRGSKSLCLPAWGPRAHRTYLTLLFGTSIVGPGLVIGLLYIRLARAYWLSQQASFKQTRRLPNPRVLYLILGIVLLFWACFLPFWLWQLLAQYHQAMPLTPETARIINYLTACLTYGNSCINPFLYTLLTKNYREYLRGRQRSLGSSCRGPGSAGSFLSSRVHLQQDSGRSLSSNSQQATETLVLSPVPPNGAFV
Outline: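 Cloned mouse urotensin (mUR2) receptor membranes from Perkin Elmer Biosignal were immobilized in FlashPlate microplates using a proprietary coating. Each well got 19.5 μl buffer, then 0.5 μl of DMSO, reference ligand, or compound. Adding 5 μl of [125I]-Urotensin II, diluted to 5× final concentration in binding buffer, started binding. Plates were sealed with TopSeal-A and incubated 1 hour at room temperature in the dark. Wells were counted for 30 seconds each on a TopCount after a 60-second delay, and percentage inhibition was calculated.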

Human κ-Opioid (KOP) = target: T11, Human κ-Opioid (KOP) (Homo sapiens, UniProt P41145); test: Radioligand binding, human κ-opioid (KOP) membranes, filtration, [3H]-Diprenorphine; details: compound at 10 μM, [3H]-Diprenorphine
T11 construct: purchased Perkin Elmer Biosignal
Outline: as §2

T3 sequence (P41143 whole entry): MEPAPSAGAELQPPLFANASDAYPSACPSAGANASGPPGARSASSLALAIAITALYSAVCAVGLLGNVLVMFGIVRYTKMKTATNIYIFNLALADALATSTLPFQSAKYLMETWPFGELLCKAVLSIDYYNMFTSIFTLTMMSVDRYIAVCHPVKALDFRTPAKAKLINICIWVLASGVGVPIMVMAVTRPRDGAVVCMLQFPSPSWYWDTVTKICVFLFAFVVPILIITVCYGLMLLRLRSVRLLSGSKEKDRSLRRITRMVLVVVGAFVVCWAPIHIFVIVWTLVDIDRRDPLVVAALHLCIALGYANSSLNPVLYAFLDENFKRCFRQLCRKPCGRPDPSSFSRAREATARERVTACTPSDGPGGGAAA
T2 sequence (P41968 whole entry): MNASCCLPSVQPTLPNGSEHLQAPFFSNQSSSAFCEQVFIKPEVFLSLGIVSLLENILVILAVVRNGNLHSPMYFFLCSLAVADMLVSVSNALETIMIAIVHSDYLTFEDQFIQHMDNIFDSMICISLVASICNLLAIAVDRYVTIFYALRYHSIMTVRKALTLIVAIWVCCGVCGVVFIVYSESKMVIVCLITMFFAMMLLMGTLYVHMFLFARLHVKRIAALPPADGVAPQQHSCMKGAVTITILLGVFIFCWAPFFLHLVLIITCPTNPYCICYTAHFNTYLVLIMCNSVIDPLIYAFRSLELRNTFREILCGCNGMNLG
T9 sequence (Q99705 whole entry): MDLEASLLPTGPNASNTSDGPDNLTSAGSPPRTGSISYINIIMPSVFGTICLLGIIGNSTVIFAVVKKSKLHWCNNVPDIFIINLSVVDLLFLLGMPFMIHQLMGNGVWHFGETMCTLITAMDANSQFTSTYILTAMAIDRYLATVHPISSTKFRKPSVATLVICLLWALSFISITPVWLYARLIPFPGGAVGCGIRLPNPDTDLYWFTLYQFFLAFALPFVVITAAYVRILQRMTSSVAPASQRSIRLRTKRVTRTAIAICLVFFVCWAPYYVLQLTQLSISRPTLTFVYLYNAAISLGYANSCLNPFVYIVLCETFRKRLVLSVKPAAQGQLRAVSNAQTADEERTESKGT
T8 sequence (P41146 whole entry): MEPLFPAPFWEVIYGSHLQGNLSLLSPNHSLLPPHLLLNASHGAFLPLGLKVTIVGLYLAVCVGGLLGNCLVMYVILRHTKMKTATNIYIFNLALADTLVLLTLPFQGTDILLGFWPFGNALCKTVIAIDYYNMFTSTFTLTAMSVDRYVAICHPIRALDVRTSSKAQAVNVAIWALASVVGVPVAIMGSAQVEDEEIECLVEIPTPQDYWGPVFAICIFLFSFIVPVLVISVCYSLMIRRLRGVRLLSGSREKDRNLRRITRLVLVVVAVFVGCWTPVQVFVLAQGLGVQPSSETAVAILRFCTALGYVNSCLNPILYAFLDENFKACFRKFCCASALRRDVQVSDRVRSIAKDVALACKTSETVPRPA
T4 sequence (P25103 whole entry): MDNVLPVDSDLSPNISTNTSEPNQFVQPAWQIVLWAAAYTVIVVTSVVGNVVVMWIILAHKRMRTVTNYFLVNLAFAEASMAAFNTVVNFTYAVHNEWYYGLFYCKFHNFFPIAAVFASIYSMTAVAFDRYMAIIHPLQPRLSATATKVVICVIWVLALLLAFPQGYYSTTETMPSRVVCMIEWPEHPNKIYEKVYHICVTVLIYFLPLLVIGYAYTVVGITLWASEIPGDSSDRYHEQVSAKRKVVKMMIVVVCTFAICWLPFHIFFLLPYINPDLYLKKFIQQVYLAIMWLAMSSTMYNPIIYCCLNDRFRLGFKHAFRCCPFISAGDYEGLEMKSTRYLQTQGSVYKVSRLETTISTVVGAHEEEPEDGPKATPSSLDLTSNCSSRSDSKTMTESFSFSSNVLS
T7 sequence (P35372 whole entry): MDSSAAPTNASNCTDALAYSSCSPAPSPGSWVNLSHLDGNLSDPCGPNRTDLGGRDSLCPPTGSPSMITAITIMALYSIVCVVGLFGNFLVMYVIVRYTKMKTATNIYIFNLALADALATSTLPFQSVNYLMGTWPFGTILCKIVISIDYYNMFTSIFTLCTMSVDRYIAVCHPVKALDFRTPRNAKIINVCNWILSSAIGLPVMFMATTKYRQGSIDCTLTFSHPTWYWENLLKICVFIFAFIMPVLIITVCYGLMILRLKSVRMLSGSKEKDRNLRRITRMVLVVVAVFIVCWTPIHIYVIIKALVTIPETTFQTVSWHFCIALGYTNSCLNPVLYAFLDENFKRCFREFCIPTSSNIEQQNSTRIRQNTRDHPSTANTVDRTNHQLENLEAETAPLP
T11 sequence (P41145 whole entry): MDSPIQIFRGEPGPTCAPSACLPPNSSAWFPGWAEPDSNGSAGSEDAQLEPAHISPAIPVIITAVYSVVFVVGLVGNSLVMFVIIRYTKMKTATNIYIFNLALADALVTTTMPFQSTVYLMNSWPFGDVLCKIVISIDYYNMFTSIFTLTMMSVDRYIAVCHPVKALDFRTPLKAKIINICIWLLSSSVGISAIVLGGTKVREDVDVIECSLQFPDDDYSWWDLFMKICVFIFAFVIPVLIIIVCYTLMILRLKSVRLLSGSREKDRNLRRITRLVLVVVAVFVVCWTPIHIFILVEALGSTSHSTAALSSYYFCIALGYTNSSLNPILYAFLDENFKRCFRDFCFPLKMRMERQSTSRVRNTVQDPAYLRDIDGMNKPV
T6 sequence (P33032 whole entry): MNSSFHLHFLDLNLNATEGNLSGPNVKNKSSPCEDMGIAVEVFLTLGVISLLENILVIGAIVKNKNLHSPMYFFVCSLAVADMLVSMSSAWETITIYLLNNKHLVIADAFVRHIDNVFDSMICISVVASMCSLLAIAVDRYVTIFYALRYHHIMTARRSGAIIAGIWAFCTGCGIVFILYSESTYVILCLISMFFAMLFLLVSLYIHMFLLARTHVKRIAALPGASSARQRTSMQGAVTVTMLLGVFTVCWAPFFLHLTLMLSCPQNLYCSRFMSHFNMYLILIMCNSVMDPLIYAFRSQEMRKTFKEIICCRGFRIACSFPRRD
T5 sequence (P32245 whole entry): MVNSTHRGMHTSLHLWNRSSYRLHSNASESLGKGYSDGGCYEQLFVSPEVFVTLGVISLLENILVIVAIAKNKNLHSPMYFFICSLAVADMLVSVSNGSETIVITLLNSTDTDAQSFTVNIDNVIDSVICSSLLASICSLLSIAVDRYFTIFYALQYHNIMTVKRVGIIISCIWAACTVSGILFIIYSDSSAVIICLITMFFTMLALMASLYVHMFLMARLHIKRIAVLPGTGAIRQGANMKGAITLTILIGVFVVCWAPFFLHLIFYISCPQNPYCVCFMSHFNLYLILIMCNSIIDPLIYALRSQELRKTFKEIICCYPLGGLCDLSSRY

SMILES	A9 radioligand binding, percentage inhibition [1]	A3 radioligand binding, percentage inhibition (Human Melanocortin (MC3))	A1 radioligand binding, percentage inhibition (Human δ-opioid (DOP))	A8 radioligand binding, percentage inhibition (Human neurokinin (NK1))	A4 radioligand binding, percentage inhibition (Human Melanocortin (MC4))	A5 radioligand binding, percentage inhibition (Human melanocortin (MC5))	A7 radioligand binding, percentage inhibition (Human μ-opioid (MOP))	A10 radioligand binding, percentage inhibition (Human opioid (ORL1))	A6 radioligand binding, percentage inhibition [2]	A11 radioligand binding, percentage inhibition (Mouse urotensin (mUR2))	A2 radioligand binding, percentage inhibition (Human κ-Opioid (KOP))	further results
CSC1OC(COCc2ccc3ccccc3c2)C(O)C(OCc2ccccc2)C1NC(=O)CCCNC(=N)N (stereo not shown) [compound 264]												A9: inhibition of radioligand binding ([1]; FlashPlate): − (“−” indicates less than 50% inhibition at 10 μM); A3: inhibition of radioligand binding (Human Melanocortin (MC3); FlashPlate): − (“−” indicates less than 50% inhibition at 10 μM); A1: inhibition of radioligand binding (Human δ-opioid (DOP); FlashPlate): − (“−” indicates less than 50% inhibition at 10 μM); A8: inhibition of radioligand binding (Human neurokinin (NK1); filtration): + (“+” indicates greater than 50% inhibition at 10 μM); A4: inhibition of radioligand binding (Human Melanocortin (MC4); FlashPlate): − (“−” indicates less than 50% inhibition at 10 μM); A5: inhibition of radioligand binding (Human melanocortin (MC5); FlashPlate): − (“−” indicates less than 50% inhibition at 10 μM); A7: inhibition of radioligand binding (Human μ-opioid (MOP); FlashPlate): − (“−” indicates less than 50% inhibition at 10 μM); A10: inhibition of radioligand binding (Human opioid (ORL1); FlashPlate): − (“−” indicates less than 50% inhibition at 10 μM); A6: inhibition of radioligand binding ([2]; [125I]-S36057, FlashPlate): − (“−” indicates less than 50% inhibition at 10 μM); A11: inhibition of radioligand binding (Mouse urotensin (mUR2); FlashPlate): − (“−” indicates less than 50% inhibition at 10 μM); A2: inhibition of radioligand binding (Human κ-Opioid (KOP); filtration): − (“−” indicates less than 50% inhibition at 10 μM)
CO[C@H]1[C@H](O)[C@@H](COCc2ccc(Cl)cc2)OC(OCc2cccc(O)c2)[C@@H]1NC(=O)CCCNC(=N)N (stereo partly shown) [compound 170]	− (“−” indicates less than 50% inhibition at 10 μM)	− (“−” indicates less than 50% inhibition at 10 μM)	− (“−” indicates less than 50% inhibition at 10 μM)	+ (“+” indicates greater than 50% inhibition at 10 μM)	− (“−” indicates less than 50% inhibition at 10 μM)	+ (“+” indicates greater than 50% inhibition at 10 μM)	+ (“+” indicates greater than 50% inhibition at 10 μM)	− (“−” indicates less than 50% inhibition at 10 μM)	− (“−” indicates less than 50% inhibition at 10 μM)	− (“−” indicates less than 50% inhibition at 10 μM)	− (“−” indicates less than 50% inhibition at 10 μM)	
CO[C@H]1[C@H](O)[C@@H](COCc2ccc3ccccc3c2)OC(OCc2ccc(Cl)cc2)[C@@H]1NC(=O)CNC(=N)N (stereo partly shown) [compound 97]	− (“−” indicates less than 50% inhibition at 10 μM)	+ (“+” indicates greater than 50% inhibition at 10 μM)	− (“−” indicates less than 50% inhibition at 10 μM)	+ (“+” indicates greater than 50% inhibition at 10 μM)	+ (“+” indicates greater than 50% inhibition at 10 μM)	+ (“+” indicates greater than 50% inhibition at 10 μM)	− (“−” indicates less than 50% inhibition at 10 μM)	+ (“+” indicates greater than 50% inhibition at 10 μM)	− (“−” indicates less than 50% inhibition at 10 μM)	− (“−” indicates less than 50% inhibition at 10 μM)	− (“−” indicates less than 50% inhibition at 10 μM)	
COCC1OC(OCc2ccccc2)C(NC(=O)CCNC(=N)N)C(OCc2ccc(Cl)cc2)C1O (stereo not shown) [compound 179]	− (“−” indicates less than 50% inhibition at 10 μM)	+ (“+” indicates greater than 50% inhibition at 10 μM)	+ (“+” indicates greater than 50% inhibition at 10 μM)	+ (“+” indicates greater than 50% inhibition at 10 μM)	+ (“+” indicates greater than 50% inhibition at 10 μM)	+ (“+” indicates greater than 50% inhibition at 10 μM)	− (“−” indicates less than 50% inhibition at 10 μM)	− (“−” indicates less than 50% inhibition at 10 μM)	+ (“+” indicates greater than 50% inhibition at 10 μM)	− (“−” indicates less than 50% inhibition at 10 μM)	− (“−” indicates less than 50% inhibition at 10 μM)	
NCCC(=O)NC1C(OCc2ccc(Cl)cc2)OC(COCc2ccc3ccccc3c2)C(O)C1OCc1ccc(Cl)cc1 (single isomer, unassigned) [compound 471]												A9: inhibition of radioligand binding ([1]; human NPY-Y1 membranes): − (“−” indicates less than 50% inhibition at 10 μM); A3: inhibition of radioligand binding (Human Melanocortin (MC3); human MC3 membranes): + (“+” indicates greater than 50% inhibition at 10 μM); A1: inhibition of radioligand binding (Human δ-opioid (DOP); human DOP membranes): − (“−” indicates less than 50% inhibition at 10 μM); A8: inhibition of radioligand binding (Human neurokinin (NK1); human NK1 membranes): + (“+” indicates greater than 50% inhibition at 10 μM); A4: inhibition of radioligand binding (Human Melanocortin (MC4); human MC4 membranes, 10 µM): − (“−” indicates less than 50% inhibition at 10 μM); A5: inhibition of radioligand binding (Human melanocortin (MC5); human MC5 membranes): + (“+” indicates greater than 50% inhibition at 10 μM); A7: inhibition of radioligand binding (Human μ-opioid (MOP); human MOP membranes): − (“−” indicates less than 50% inhibition at 10 μM); A10: inhibition of radioligand binding (Human opioid (ORL1); human ORL1 membranes): − (“−” indicates less than 50% inhibition at 10 μM); A6: inhibition of radioligand binding ([2]; [125I]-S36057, human MCH1 membranes, 10 µM): − (“−” indicates less than 50% inhibition at 10 μM); A11: inhibition of radioligand binding (Mouse urotensin (mUR2); mouse mUR2 membranes): − (“−” indicates less than 50% inhibition at 10 μM); A2: inhibition of radioligand binding (Human κ-Opioid (KOP); human KOP membranes): − (“−” indicates less than 50% inhibition at 10 μM)
